Tested on: 596521-263-R-J1-PDC complex spheroids, viability % of control
Experiment: Anticancer human tumor 596521-263-R-J1-PDC patient-derived soft tissue sarcoma cell line growth inhibition [GQUAD]
Conditions: for IC50: curve of first compound; for viability, T/C: stronger effect = lower value; active = viability on the fitted dose curve at most 10% of control; inactive = the rest
Summary of the method: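 Tumor cells were grown as complex spheroids with HUVEC endothelial cells and mesenchymal stem cells as stroma. G-quadruplex stabilizers were combined with targeted agents over half-log dilutions from near the clinical Cmax, or from 10 microM.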

[1] = second compound 0.0316 µM, first compound 0.000999 µM
[2] = second compound 0.0316 µM, first compound 0.00316 µM
[3] = second compound 0.0316 µM, first compound 0.00999 µM
[4] = second compound 0.0316 µM, first compound 0.0316 µM
[5] = second compound 0.0316 µM, first compound 0.0999 µM
[6] = second compound 0.0316 µM, first compound 0.316 µM
[7] = second compound 0.1 µM, first compound 0.000999 µM
[8] = second compound 0.1 µM, first compound 0.00316 µM
[9] = second compound 0.1 µM, first compound 0.00999 µM
[10] = second compound 0.1 µM, first compound 0.0316 µM
[11] = second compound 0.1 µM, first compound 0.0999 µM
[12] = second compound 0.1 µM, first compound 0.316 µM
[13] = second compound 0.316 µM, first compound 0.000999 µM
[14] = second compound 0.316 µM, first compound 0.00316 µM
[15] = second compound 0.316 µM, first compound 0.00999 µM
[16] = second compound 0.316 µM, first compound 0.0316 µM
[17] = second compound 0.316 µM, first compound 0.0999 µM
[18] = second compound 0.316 µM, first compound 0.316 µM
[19] = second compound 1 µM, first compound 0.000999 µM
[20] = second compound 1 µM, first compound 0.00316 µM
[21] = second compound 1 µM, first compound 0.00999 µM
[22] = second compound 1 µM, first compound 0.0316 µM
[23] = second compound 1 µM, first compound 0.0999 µM
[24] = second compound 1 µM, first compound 0.316 µM
[25] = second compound 3.16 µM, first compound 0.000999 µM
[26] = second compound 3.16 µM, first compound 0.00316 µM
[27] = second compound 3.16 µM, first compound 0.00999 µM
[28] = second compound 3.16 µM, first compound 0.0316 µM
[29] = second compound 3.16 µM, first compound 0.0999 µM
[30] = second compound 3.16 µM, first compound 0.316 µM
[31] = second compound 10 µM, first compound 0.000999 µM
[32] = second compound 10 µM, first compound 0.00316 µM
[33] = second compound 10 µM, first compound 0.00999 µM
[34] = second compound 10 µM, first compound 0.0316 µM
[35] = second compound 10 µM, first compound 0.0999 µM
[36] = second compound 10 µM, first compound 0.316 µM
[37] = second compound 0.0316 µM, first compound 0.1 µM
[38] = second compound 0.0316 µM, first compound 1 µM
[39] = second compound 0.0316 µM, first compound 3.16 µM
[40] = second compound 0.0316 µM, first compound 10 µM
[41] = second compound 0.1 µM, first compound 0.1 µM
[42] = second compound 0.1 µM, first compound 1 µM
[43] = second compound 0.1 µM, first compound 3.16 µM
[44] = second compound 0.1 µM, first compound 10 µM
[45] = second compound 0.316 µM, first compound 0.1 µM
[46] = second compound 0.316 µM, first compound 1 µM
[47] = second compound 0.316 µM, first compound 3.16 µM
[48] = second compound 0.316 µM, first compound 10 µM
[49] = second compound 1 µM, first compound 0.1 µM
[50] = second compound 1 µM, first compound 1 µM
[51] = second compound 1 µM, first compound 3.16 µM
[52] = second compound 1 µM, first compound 10 µM
[53] = second compound 3.16 µM, first compound 0.1 µM
[54] = second compound 3.16 µM, first compound 1 µM
[55] = second compound 3.16 µM, first compound 3.16 µM
[56] = second compound 3.16 µM, first compound 10 µM
[57] = second compound 10 µM, first compound 0.1 µM
[58] = second compound 10 µM, first compound 1 µM
[59] = second compound 10 µM, first compound 3.16 µM
[60] = second compound 10 µM, first compound 10 µM
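Also: spheroids exposed to drugs for 7 days before viability reading.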
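For viability, T/C in this document: 100% = DMSO vehicle control viability.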

CCc1c2c(nc3ccc(O)cc13)-c1cc3c(c(=O)n1C2)COC(=O)[C@]3(O)CC + Cc1cnc(CNC(=O)c2c(=O)c3ccc(N4CCCN(C)CC4)nc3n3c2sc2ccccc23)cn1
8.62 nM: IC50 (second compound 0.0316 µM)
8.15 nM: IC50 (second compound 0.1 µM)
9.24 nM: IC50 (second compound 0.316 µM)
13.2 nM: IC50 (second compound 1 µM)
< 0.999 nM: IC50 (second compound 10 µM)
6.43 nM: IC50 (second compound 3.16 µM)
inactive: viability, T/C [1] 57.6% | viability, T/C [2] 59.2% | viability, T/C [3] 44.3% | viability, T/C [4] 40% | viability, T/C [5] 17.4% | viability, T/C [7] 58.6% | viability, T/C [8] 56.8% | viability, T/C [9] 49.3% | viability, T/C [10] 34.1% | viability, T/C [11] 21.3% | viability, T/C [13] 71.6% | viability, T/C [14] 55.4% | viability, T/C [15] 49.9% | viability, T/C [16] 40.5% | viability, T/C [17] 21.2% | viability, T/C [19] 63.8% | viability, T/C [20] 61.7% | viability, T/C [21] 52.6% | viability, T/C [22] 40.1% | viability, T/C [23] 24.1% | viability, T/C [25] 55.8% | viability, T/C [26] 55% | viability, T/C [27] 47.6% | viability, T/C [28] 37.3% | viability, T/C [29] 23.2% | viability, T/C [31] 47.2% | viability, T/C [32] 37.1% | viability, T/C [33] 39.6% | viability, T/C [34] 32.5% | viability, T/C [35] 4.57%
active: viability, T/C [6] 7.92% | viability, T/C [12] 8.98% | viability, T/C [18] 7.27% | viability, T/C [24] 6.45% | viability, T/C [30] 0.26% | viability, T/C [36] 0.24%

CC(=O)O[C@H]1C(=O)[C@@]2(C)[C@H]([C@H](OC(=O)c3ccccc3)[C@]3(O)C[C@H](OC(=O)[C@H](O)[C@@H](NC(=O)c4ccccc4)c4ccccc4)C(C)=C1C3(C)C)[C@]1(OC(C)=O)CO[C@@H]1C[C@@H]2O + Cc1[nH]c2ccc(F)cc2c1-c1nc2c3cccnc3c3ncccc3c2[nH]1
173 nM: IC50 (second compound 0.316 µM)
144 nM: IC50 (second compound 0.1 µM)
212 nM: IC50 (second compound 1 µM)
active: viability, T/C [38] 0.81% | viability, T/C [39] 0.38% | viability, T/C [40] 0.28% | viability, T/C [42] 0.74% | viability, T/C [43] 0.23% | viability, T/C [44] 0.22% | viability, T/C [46] 1.26% | viability, T/C [47] 0.2% | viability, T/C [48] 1.66% | viability, T/C [50] 1.83% | viability, T/C [51] 0.31% | viability, T/C [52] 0.28% | viability, T/C [54] 1.48% | viability, T/C [55] 0.34% | viability, T/C [56] 1.18% | viability, T/C [58] 1.48% | viability, T/C [59] 0.49% | viability, T/C [60] 0.31%
inactive: viability, T/C [4] 90.8% | viability, T/C [37] 55.8% | viability, T/C [6] 20.6% | viability, T/C [10] 96.1% | viability, T/C [41] 60.2% | viability, T/C [12] 28.2% | viability, T/C [16] 107% | viability, T/C [45] 69.1% | viability, T/C [18] 30.8% | viability, T/C [22] 89.1% | viability, T/C [49] 74.9% | viability, T/C [24] 37.5% | viability, T/C [28] 85.4% | viability, T/C [53] 69% | viability, T/C [30] 39.2% | viability, T/C [34] 71.3% | viability, T/C [57] 65.2% | viability, T/C [36] 42.9%
204 nM: IC50 (second compound 3.16 µM)
226 nM: IC50 (second compound 10 µM)
122 nM: IC50 (second compound 0.0316 µM)

CC(C)n1c(=O)n(C)c2cnc3cc(F)c(-c4ccc(OCCCN5CCCCC5)nc4)cc3c21 + CN(C)c1ccc(Nc2c3ccc(NC(=O)CCN4CCCC4)cc3nc3cc(NC(=O)CCN4CCCC4)ccc23)cc1
899 nM: IC50 (second compound 10 µM)
inactive: viability, T/C [4] 104% | viability, T/C [37] 103% | viability, T/C [6] 100% | viability, T/C [38] 87.1% | viability, T/C [39] 84.1% | viability, T/C [40] 66.8% | viability, T/C [10] 104% | viability, T/C [41] 106% | viability, T/C [12] 91.8% | viability, T/C [42] 95.7% | viability, T/C [43] 92.4% | viability, T/C [44] 63.5% | viability, T/C [16] 111% | viability, T/C [45] 96.8% | viability, T/C [18] 103% | viability, T/C [46] 89.8% | viability, T/C [47] 84.7% | viability, T/C [48] 64.9% | viability, T/C [22] 99.8% | viability, T/C [49] 112% | viability, T/C [24] 100% | viability, T/C [50] 98.5% | viability, T/C [51] 96.9% | viability, T/C [52] 73.6% | viability, T/C [28] 90.7% | viability, T/C [53] 98% | viability, T/C [30] 91.2% | viability, T/C [54] 80.7% | viability, T/C [55] 77% | viability, T/C [56] 59.6% | viability, T/C [34] 70% | viability, T/C [57] 60.7% | viability, T/C [36] 57.4% | viability, T/C [58] 48.4% | viability, T/C [59] 43.6% | viability, T/C [60] 31.5%
> 10000 nM: IC50 (second compound 0.0316 µM) | IC50 (second compound 0.1 µM) | IC50 (second compound 0.316 µM) | IC50 (second compound 1 µM) | IC50 (second compound 3.16 µM)

Cn1ncnc1[C@H]1c2n[nH]c(=O)c3cc(F)cc(c23)N[C@@H]1c1ccc(F)cc1 + CN(C)c1ccc(Nc2c3ccc(NC(=O)CCN4CCCC4)cc3nc3cc(NC(=O)CCN4CCCC4)ccc23)cc1
> 316 nM: IC50 (second compound 0.0316 µM) | IC50 (second compound 0.1 µM) | IC50 (second compound 0.316 µM) | IC50 (second compound 1 µM) | IC50 (second compound 3.16 µM) | IC50 (second compound 10 µM)
inactive: viability, T/C [1] 106% | viability, T/C [2] 89.4% | viability, T/C [3] 90.6% | viability, T/C [4] 84.8% | viability, T/C [5] 99.6% | viability, T/C [6] 80.5% | viability, T/C [7] 98.4% | viability, T/C [8] 92.1% | viability, T/C [9] 96.6% | viability, T/C [10] 94.7% | viability, T/C [11] 86.6% | viability, T/C [12] 93.5% | viability, T/C [13] 104% | viability, T/C [14] 97.9% | viability, T/C [15] 102% | viability, T/C [16] 94.6% | viability, T/C [17] 83.4% | viability, T/C [18] 80% | viability, T/C [19] 92.4% | viability, T/C [20] 89.5% | viability, T/C [21] 99.8% | viability, T/C [22] 85.1% | viability, T/C [23] 95% | viability, T/C [24] 76.1% | viability, T/C [25] 94% | viability, T/C [26] 97% | viability, T/C [27] 98.4% | viability, T/C [28] 85.5% | viability, T/C [29] 92.6% | viability, T/C [30] 80.8% | viability, T/C [31] 70.1% | viability, T/C [32] 58.9% | viability, T/C [33] 67.3% | viability, T/C [34] 64.9% | viability, T/C [35] 61.5% | viability, T/C [36] 60.2%

From PubChem BioAssay AID2060500 (Molecular Pharmacology Branch, DTP, NCI, 2025)
